Assay results published in paper PMC9469500, “Targeting an Initiator Allergen Provides Durable and Expansive Protection against House Dust Mite Allergy” (ACS Pharmacology & Translational Science, 2022).
Structures can show the parent of a compound that is named as a salt.

Experiments:
thermodynamic solubility = type: physicochemical; conditions: thermodynamic from solid
[1] = tested on: rat airway epithelial cell line L2; test: Cellular stability in L2 cells; type: in vitro ADME; conditions: 100 nM compound
Experimental: (§1) Cellular Stability of Compounds
(§2) The cellular stability of compounds in vitro was tested using rat airway epithelial cell line L2 and rat alveolar macrophage line NR8383 (ATCC©CRL-2192™). Assays were performed in replicate and the data expressed as mean ± s.e. mean. L2 cells were cultured to confluence in T25 flasks or 24 -well plates using Kaighn’s modification of Ham’s F12 medium (F12K). Cells were prepared for assay by washing 3 times with serum-free F12K. NR8383 Airway macrophages were grown in suspension culture in F12K, collected by centrifugation, washed in serum-free medium and aliquoted into test plates (1.4 x 10^6 cells/well). Both cell lines were treated with ADI compounds (100 nM) in serum -free F12K in a 5% CO 2 environment at 37 °C. Samples were removed for quantitative analysis by LC -MS-MS using appropriate multiple reaction monitoring transitions for each analyte. […]
(§3) n-Octanol (0.7 mL), pre -saturated with 10 mM PBS, pH7.4, was added to test compound (~1 mg) in a 2 mL HPLC vial followed by PBS (0. 7 mL), which had been pre -saturated with n -octanol. The mixture was shaken for 90 min before centrifugation for 10 min at 4,000 rpm. The upper organic layer (0.2 mL) and the aqueous layer (0.5 mL) were removed for analysis by LC-MS. Peak identity was confirmed by mass spectrometry and concentration assessed spectrophotometrically using a diode array detector. The log

[2] = tested on: rat alveolar macrophage line NR8383; test: Cellular stability in macrophages; type: in vitro ADME; conditions: 100 nM compound
Experimental: as §1, §2, §3

plasma stability (rat) = type: in vitro ADME
plasma stability (human) = type: in vitro ADME
[3] = Plasma protein binding (rat); type: in vitro ADME
Experimental: Plasma protein binding (PPB) was determined using Rapid Equilibrium Dialysis chambers with 8 kDa cut-off inserts (Fisher Scientific UK Ltd, Leicestershire, UK). Rat (Sprague Dawley strain) plasma EDTA K2 (pooled, mixed sex, SeraLab, West Sussex, UK) was centrifuged (13,000 x g, 10 min) to remove precipitates before addition of compounds (initial concentration 5 M). Concentrations were determined by liquid chromatography-tandem mass spectrometry (LC-MS-MS) (AB Sciex 3200 QTrap) after 4 h incubation at 37 °C with binding being calculated from the concentration of compound in each chamber. Assays were performed in replicate and the data expressed as mean ± s.e.

[4] = Plasma protein binding (human); type: in vitro ADME
Experimental: Plasma Protein Binding Assay
Plasma protein binding (PPB) was determined using Rapid Equilibrium Dialysis chambers with 8 kDa cut-off inserts (Fisher Scientific UK Ltd, Leicestershire, UK). Rat (Sprague Dawley strain) plasma EDTA K2 (pooled, mixed sex, SeraLab, West Sussex, UK) was centrifuged (13,000 x g, 10 min) to remove precipitates before addition of compounds (initial concentration 5 µM). Concentrations were determined by liquid chromatography-tandem mass spectrometry (LC-MS-MS) (AB Sciex 3200 QTrap) after 4 h incubation at 37 °C with binding being calculated from the concentration of compound in each chamber. Assays were performed in replicate and the data expressed as mean ± s.e.
Cellular Stability of Compounds […]
Kaighn’s modification of Ham’s F12 medium (F12K). Cells were prepared for assay by washing 3 times with serum-free F12K. NR8383 Airway macrophages were grown in suspension culture in F12K, collected by centrifugation, washed in serum-free medium and aliquoted into test plates (1.4 x 10^6 cells/well). Both cell lines were treated with ADI compounds (100 nM) in serum -free F12K in a 5% CO 2 environment at 37 […]
n-Octanol (0.7 mL), pre -saturated with 10 mM PBS, pH7.4, was added to test compound (~1 mg) in a 2 mL HPLC vial followed by PBS (0. 7 mL), which had been pre -saturated with n -octanol. […]

rat hepatocytes = test: hepatocyte stability (rat); type: in vitro ADME
human hepatocytes = test: hepatocyte stability (human); type: in vitro ADME
[5] = tested on: rats sensitized to the HDM allergen extract; test: HDM extract challenge in rats sensitized to the HDM allergen extract (BAL cells and mediators); type: in vivo, BN rats; conditions: single i.t. aerosol dose 2 h before (15 μg/kg compound 1, 46 μg/kg compound 2), BAL 48 h
Text: Control animals received saline vehicle treatment.

unsensitized BN rats = test: HDM extract challenge in unsensitized (naive) BN rats, duration of protection; type: in vivo
Pharmacokinetics in rats = conditions: rat p.o.
Experimental: Soluble formulations were developed and verified by high performance liquid chromatography (HPLC)
1 mL/kg) and p.o. (5 mg/kg, 5 mL/kg) in non-fasted Sprague-Dawley rats (male, 200-300 g, 10-16 weeks
of age, groups of three animals per route per compound). Timed blood samples were taken after dosing
and plasma prepared for LC-MS-MS quantification of the test substance after inclusion of an internal
standard. A non -compartmental model in WinNonlin software was used to calculate pharmacokinetic

[6] = single i.t. dose (15 μg/kg compound 1, 46 μg/kg compound 2), BAL 48 h

With `CC(C)[C@H](NC(=O)[C@H](C)NC(=O)[C@@H](NC(=O)C1CC[N+](C)(C)CC1)C(C)(C)C)C(=O)C(=O)NCc1ccccc1` [Compound 2, 4-{(S)-1-[(S)-1-((S)-1-benzylaminooxalyl-2-methyl-propylcarbamoyl)-ethylcarbamoyl]-2,2-dimethyl-propylcarbamoyl}-1,1-dimethyl-piperidinium formate] the solubility thermodynamic (thermodynamic solubility) was > 1600 µM, the cell stability [1] was 100;100 and the cell stability [2] was 100;100. The remaining at 2 h (plasma stability (rat)) was 100%, the remaining at 2 h (plasma stability (human)) was 100% and the plasma protein binding [3] was 61%. The fraction unbound at 4 h, 5 µM [4] was 0.37, the hepatocyte half-life (rat hepatocytes) was “∞ (rat); ∞ (human)” and the hepatocyte half-life (human hepatocytes) was “∞ (rat); ∞ (human)”. For the same molecule, the “changes in BAL cells after HDM challenge” value ([5]; HDM 10 (10 μg Der p 1) i.t. aerosol) was “attenuated”, the “BAL eosinophils after HDM challenge” value ([5]; HDM 10) was “eosinophil suppression” and the “BAL monocytes/macrophages after HDM challenge” value ([5]; HDM 10) was “No effects”. For the same molecule, the “BAL neutrophil responses after HDM challenge” value ([5]; HDM 10) was “not significant”, the neutrophil response (unsensitized BN rats; BAL performed 24 h after HDM extract challenge, dosed 2 h prior) was “clear inhibition” and the “inhibition of BAL monocytes/macrophages (significance)” value (unsensitized BN rats; dosing 120 min prior to challenge, 46 μg/kg i.t., BAL 48 h) was “significant”. For the same molecule, the “performance in vivo (maximum inhibition of the eosinophil response, Figure 5A)” value (unsensitized BN rats; focused library, durability of inhibition studies) was “performed well”, the “effects on BAL neutrophils” value (unsensitized BN rats; intervening pretreatment intervals, BAL 48 h) was “insignificant” and the “effect on BAL neutrophils (significance)” value (unsensitized BN rats; pretreatment 60 min, 46 μg/kg i.t., BAL 48 h) was “significant”. For the same molecule, the “effect on BAL neutrophils (significance)” value (unsensitized BN rats; pretreatment 360 min, 46 μg/kg i.t., BAL 48 h) was “significant”, the “effects on BAL neutrophils” value (unsensitized BN rats; short or long pretreatment intervals, BAL 48 h) was “inhibitory” and the “effect on BAL monocytes/macrophages” value (unsensitized BN rats; shorter pretreatment times, BAL 48 h) was “modest inhibition”. The “effect on eosinophils with 6–8 h separation of dose and challenge” value (unsensitized BN rats; [6]) was “substantial inhibition”, the “time of administration before challenge giving peak effects on eosinophils” value (unsensitized BN rats; [6]) was 2 h and the half-life (Pharmacokinetics in rats; male, Sprague-Dawley, rat, plasma, po, 5 mg/kg, half-life, fed) was 18 min. For the same molecule, the volume of distribution (Pharmacokinetics in rats) was 0.3 L/kg and the clearance (Pharmacokinetics in rats; fasted) was 19 (fasted) mL/min/kg.
